We go through 42 compounds from patent publication US12617773B2, “Azetidin-3-ylmethanol derivatives as CCR6 receptor modulators” (Idorsia Pharmaceuticals Ltd, priority 2020, dated 2026).

In this test the target is T1, human CCR6 (Homo sapiens, UniProt P51684).
T1 construct: expressed in transfected cells; host or cells: HEK-293
T1 sequence (P51684 1-374): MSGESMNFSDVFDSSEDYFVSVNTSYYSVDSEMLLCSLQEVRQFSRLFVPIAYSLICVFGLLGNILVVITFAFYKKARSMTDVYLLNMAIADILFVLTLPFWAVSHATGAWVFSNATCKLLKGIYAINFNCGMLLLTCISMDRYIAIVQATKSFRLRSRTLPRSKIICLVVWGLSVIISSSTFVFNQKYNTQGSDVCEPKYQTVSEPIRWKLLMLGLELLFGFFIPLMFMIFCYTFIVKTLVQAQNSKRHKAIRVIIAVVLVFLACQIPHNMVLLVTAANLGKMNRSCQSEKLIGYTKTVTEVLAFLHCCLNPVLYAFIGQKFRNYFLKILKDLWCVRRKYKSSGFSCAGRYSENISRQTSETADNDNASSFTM
As to the kind of experiment: FLIPR assay (inhibition of CCL20-induced calcium signal). The test is classed as cell-based. Conditions: HEK-293 cells expressing human CCR6; mean values where determined several times; read-out: FLIPR IC50. The procedure, abridged: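 Dye-loaded HEK-293 cells expressing human CCR6 were preincubated with compound for 30 min at room temperature in the dark, then challenged with 10 nM CCL20 (final). Fluorescence was tracked on FLIPR, and baseline-subtracted peak emission over base after agonist addition gave inhibition dose-response curves for IC50.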
As to `CC(C)c1ccc([C@](O)(c2cncc(-c3noc(C4CCN(C(=O)CC5COC5)CC4)n3)c2)C2(C)CN(C)C2)cc1` [Example 474, 1-[4-(3-{5-[(R)-(1,3-Dimethyl-azetidin-3-yl)-hydroxy-(4-isopropyl-phenyl)-methyl]-pyridin-3-yl}-[1,2,4]oxadiazol-5-yl)-piperidin-1-yl]-2-oxetan-3-yl-ethanone], the IC50 (commonly the concentration that gives 50% inhibition) came to 121 nM.

Consider `CC(C)c1ccc([C@](O)(c2cncc(C3CCC(C)(O)CC3)c2)C2(C)CN(C)C2)cc1` (stereo partly drawn) [Example 327, 4-{5-[(R)-(1,3-Dimethyl-azetidin-3-yl)-hydroxy-(4-isopropyl-phenyl)-methyl]-pyridin-3-yl}-1-methyl-cyclohexanol], for which the IC50 came to 168 nM.

On to `CC(C)c1ccc([C@](O)(c2cncc(N3CC(c4cnn(C)c4)CC3=O)c2)C2(C)CN(C)C2)cc1` (stereo partly drawn) [Example 676], for which the IC50 is 108 nM.

As for `CC(C)c1ccc([C@](O)(c2cncc([C@@H]3CCC(C)(O)C3)c2)C2(C)CN(C)C2)cc1` (single isomer, unassigned) [Example 297], the IC50 is 93.5 nM.

With `CC(C)c1ccc([C@](O)(c2cncc(C3CCN(C(=O)OC(C)(C)C)C3)c2)C2(C)CN(C)C2)cc1` (stereo partly drawn) [Example 313], the IC50 was determined as 158 nM.

Turning to `Cc1nn(C)cc1C(O)CCc1cncc([C@@](O)(c2ccc(C(C)C)cc2)C2(C)CN(C)C2)c1` (stereo partly drawn) [Example 64], the IC50 is 441 nM.

For the compound `CC(C)c1ccc([C@](O)(c2cncc(CC[C@H](C)O)c2)C2(C)CN(C)C2)cc1` [Example 51], the IC50 amounted to 134 nM.

For the compound `CC(C)c1ccc([C@](O)(c2cncc(-c3noc(C(C)(C)O)n3)c2)C2(F)CN(C)C2)cc1` [Example 445, 2-(3-{5-[(S)-(3-Fluoro-1-methyl-azetidin-3-yl)-hydroxy-(4-isopropyl-phenyl)-methyl]-pyridin-3-yl}-[1,2,4]oxadiazol-5-yl)-propan-2-ol], the half-inhibitory concentration (IC50) stood at 44.8 nM.

For `CC(C)c1ccc([C@](O)(c2cncc(-c3noc(C(C)(F)F)n3)c2)C2(C)CN(C)C2)cc1` [Example 518, (R)-{5-[5-(1,1-Difluoro-ethyl)-[1,2,4]oxadiazol-3-yl]-pyridin-3-yl}-(1,3-dimethyl-azetidin-3-yl)-(4-isopropyl-phenyl)-methanol], the IC50 amounted to 41.2 nM.

For the compound `CC(C)c1ccc([C@](O)(c2cnnc(N3CCCC3=O)c2)C2(C)CN(C)C2)cc1` [Example 222, 1-{5-[(R)-(1,3-Dimethyl-azetidin-3-yl)-hydroxy-(4-isopropyl-phenyl)-methyl]-pyridazin-3-yl}-pyrrolidin-2-one], the IC50 amounted to 164 nM.

For `Cc1nccc(C(C)(O)CCc2cncc([C@@](O)(c3ccc(C(C)C)cc3)C3(C)CN(C)C3)c2)n1` (stereo partly drawn) [Example 645], the IC50 turned out to be 110 nM.

Turning to `CC(C)c1ccc([C@](O)(c2cncc(C#CC(C)(C)O)c2)C2(C)CN(C)C2)cc1` [Example 15, 4-{5-[(R)-(1,3-Dimethyl-azetidin-3-yl)-hydroxy-(4-isopropyl-phenyl)-methyl]-pyridin-3-yl}-2-methyl-but-3-yn-2-ol], the half-maximal inhibitory concentration (IC50) came to 80.8 nM.

`Cc1cnc(C(C)(O)C#Cc2cncc([C@@](O)(c3ccc(C(C)C)cc3)C3(C)CN(C)C3)c2)cn1` (stereo partly drawn) [Example 617]: the IC50 is 53.5 nM.

As for `CC(=O)N1CCCC(C)(c2nc(-c3cncc([C@@](O)(c4ccc(C(C)C)cc4)C4(C)CN(C)C4)c3)no2)C1` (stereo partly drawn) [Example 457], the IC50 is 56.4 nM.

`CC(C)c1ccc([C@](O)(c2cncc(-c3noc(C4(O)CCCC4)n3)c2)C2(C)CN(C)C2)cc1` [Example 122]: the IC50 was 42.1 nM.

In the case of `COCc1nc(-c2cncc([C@@](O)(c3ccc(C(C)C)cc3)C3(C)CN(C)C3)c2)no1` [Example 105], the IC50 was found to be 43.4 nM.

Consider `CC(C)c1ccc([C@](O)(c2cncc(CCC3CCN(C(=O)OC(C)(C)C)CC3)c2)C2(C)CN(C)C2)cc1` [Example 414, 4-(2-{5-[(R)-(1,3-Dimethyl-azetidin-3-yl)-hydroxy-(4-isopropyl-phenyl)-methyl]-pyridin-3-yl}-ethyl)-piperidine-1-carboxylic acid tert-butyl ester], for which the IC50 was 34.7 nM.

In the case of `CN1CC(C#N)(C(O)(c2ccc(OC(F)(F)F)cc2)c2cncc(N3CCCC3)c2)C1` (stereo not drawn) [Example 2, 3-[Hydroxy-(5-pyrrolidin-1-yl-pyridin-3-yl)-(4-trifluoromethoxy-phenyl)-methyl]-1-methyl-azetidine-3-carbonitrile], the IC50 came to 147 nM.

Turning to `CC(C)c1ccc([C@](O)(c2cncc(-c3noc(C(C)(C)O)n3)c2)C2(C)CN(C)C2)cc1F` [Example 539], the IC50 worked out at 56 nM.

Turning to `CC1([C@](O)(c2ccc(OC(F)(F)F)cc2)c2cncc(N3CCCC3)c2)CN(CCF)C1` [Example 10, (R)-[1-(2-Fluoro-ethyl)-3-methyl-azetidin-3-yl]-(5-pyrrolidin-1-yl-pyridin-3-yl)-(4-trifluoromethoxy-phenyl)-methanol], the IC50 came out at 64.1 nM.

`CC(C)c1ccc([C@](O)(c2cncc(-c3noc(CCN(C)C(=O)CO)n3)c2)C2(C)CN(C)C2)cc1` [Example 144, N-[2-(3-{5-[(R)-(1,3-Dimethyl-azetidin-3-yl)-hydroxy-(4-isopropyl-phenyl)-methyl]-pyridin-3-yl}-[1,2,4]oxadiazol-5-yl)-ethyl]-2-hydroxy-N-methyl-acetamide]: the IC50 was determined as 376 nM.

Consider `CN1CC(C)([C@](O)(c2ccc(C(C)(C)C)cc2)c2cncc(-c3noc(C(C)(C)O)n3)c2)C1` [Example 540], for which the IC50 came to 122 nM.

Regarding `CC(C)c1ccc([C@](O)(c2cncc(CCc3cc4ccccc4[nH]3)c2)C2(C)CN(C)C2)cc1` [Example 81], the IC50 worked out at 19.1 nM.

`CC(C)c1ccc([C@](O)(c2cncc(C#C[C@@]3(O)CCN(C)C3=O)c2)C2(C)CN(C)C2)cc1` [Example 610]: the IC50 amounted to 426 nM.

For `CC(C)CN1CC(C)([C@](O)(c2ccc(OC(F)(F)F)cc2)c2cncc(N3CCCC3)c2)C1` [Example 8], the IC50 came to 110 nM.

Turning to `CC(C)c1ccc([C@](O)(c2ccnc(N3CCC(F)(F)C3)c2)C2(C)CN(C)C2)cc1` [Example 162, (S)-[2-(3,3-Difluoro-pyrrolidin-1-yl)-pyridin-4-yl]-(1,3-dimethyl-azetidin-3-yl)-(4-isopropyl-phenyl)-methanol], the IC50 is 43.4 nM.

Consider `CC(C)c1ccc([C@](O)(c2cncc(-c3noc(C4COC4)n3)c2)C2(C)CN(C)C2)cc1` [Example 133], for which the IC50 was 74.5 nM.

As to `CCCc1ccc([C@](O)(c2cncc(-c3nc(C4CCOCC4)no3)c2)C2(C)CN(C)C2)cc1` [Example 86], the IC50 was 75.3 nM.

For `CC(C)c1ccc([C@](O)(c2cncc(-c3noc(C4(C)CNC(=O)C4)n3)c2)C2(C)CN(C)C2)cc1` (stereo partly drawn) [Example 482], the IC50 came out at 92.3 nM.

Regarding `CC(=O)N1CCC(c2nc(-c3cncc([C@@](O)(c4ccc(C(C)C)cc4)C4(C)CN(CCC(F)(F)F)C4)c3)no2)CC1` [Example 583], the IC50 came out at 239 nM.

Take `CC(C)c1ccc([C@](O)(c2cnnc(O[C@@H]3CCOC3)c2)C2(C)CN(C)C2)cc1` [Example 431, (R)-(1,3-Dimethyl-azetidin-3-yl)-(4-isopropyl-phenyl)-{6-[(R)-(tetrahydro-furan-3-yl)oxy]-pyridazin-4-yl}-methanol]: the IC50 is 197 nM.

Take `CC1([C@](O)(c2ccc(OC(F)(F)F)cc2)c2cncc(N3CCCC3)c2)CN(CC2CC2)C1` [Example 6]: the IC50 came to 47.2 nM.

For `CC(C)c1ccc([C@](O)(c2cncc(OC3CCC(=O)CC3)c2)C2(C)CN(C)C2)cc1` [Example 424, 4-{5-[(R)-(1,3-Dimethyl-azetidin-3-yl)-hydroxy-(4-isopropyl-phenyl)-methyl]-pyridin-3-yloxy}-cyclohexanone], the IC50 was determined as 107 nM.

For `CC(C)c1ccc([C@](O)(c2cncc(C#CC(C)(C)NC(=O)C3CC3)c2)C2(C)CN(C)C2)cc1` [Example 588], the IC50 worked out at 119 nM.

`CC(=O)N1CCC(c2nc(-c3cncc([C@@](O)(c4ccc(C(C)C)cc4)C4(F)CN(C)C4)c3)no2)CC1` [Example 447, 1-[4-(3-{5-[(S)-(3-Fluoro-1-methyl-azetidin-3-yl)-hydroxy-(4-isopropyl-phenyl)-methyl]-pyridin-3-yl}-[1,2,4]oxadiazol-5-yl)-piperidin-1-yl]-ethanone]: the IC50 was determined as 43.2 nM.

Regarding `CCN1CC(C)([C@](O)(c2ccc(C(C)C)cc2)c2cncc(-c3noc(C4CCN(C(C)=O)CC4)n3)c2)C1` [Example 585], the IC50 is 116 nM.

In the case of `Cc1cccc(C(C)(O)C#Cc2cncc([C@@](O)(c3ccc(C(C)C)cc3)C3(C)CN(CCO)C3)c2)n1` (stereo partly drawn) [Example 667], the IC50 turned out to be 52.4 nM.

`CC(C)c1ccc([C@](O)(c2cncc(N3CC4(CC(C)(C)C4)OC3=O)c2)C2(C)CN(C)C2)cc1` [Example 204]: the IC50 came to 48.2 nM.

In the case of `Cc1cccc(C(C)(O)C#Cc2cncc([C@@](O)(c3ccc(C(C)C)cc3)C3(C)CN(CC(F)F)C3)c2)n1` (stereo partly drawn) [Example 668], the IC50 stood at 101 nM.

As for `CC(C)c1ccc([C@](O)(c2cncc(-c3noc([C@@H]4CC(=O)N4)n3)c2)C2(C)CN(C)C2)cc1` [Example 363], the concentration for half-maximal inhibition (IC50) stood at 178 nM.

Take `Cc1cc(C2(C#Cc3cncc([C@@](O)(c4ccc(C(C)C)cc4)C4(C)CN(C)C4)c3)CC2)ncn1` [Example 635]: the IC50 is 23.2 nM.

As to `CC(C)c1ccc([C@](O)(c2cncc(N3CC[C@H](CO)C3)c2)C2(C)CN(C)C2)cc1` [Example 170], the IC50 amounted to 133 nM.
